Laboratory results reported in BindingDB's records for doi:10.1016/S0960-894X(00)80170-5 (1992).

What was measured:
[1] = molecular target: T1, 5-hydroxytryptamine receptor 3A/3B (Mus musculus, UniProt P23979+Q9JHJ5); assay: Compound was evaluated for binding to Serotonin 5-hydroxytryptamine 3 receptor in N1E cells using [3H]- -Tropisetron as radioligand
T1 sequence (P23979 whole entry): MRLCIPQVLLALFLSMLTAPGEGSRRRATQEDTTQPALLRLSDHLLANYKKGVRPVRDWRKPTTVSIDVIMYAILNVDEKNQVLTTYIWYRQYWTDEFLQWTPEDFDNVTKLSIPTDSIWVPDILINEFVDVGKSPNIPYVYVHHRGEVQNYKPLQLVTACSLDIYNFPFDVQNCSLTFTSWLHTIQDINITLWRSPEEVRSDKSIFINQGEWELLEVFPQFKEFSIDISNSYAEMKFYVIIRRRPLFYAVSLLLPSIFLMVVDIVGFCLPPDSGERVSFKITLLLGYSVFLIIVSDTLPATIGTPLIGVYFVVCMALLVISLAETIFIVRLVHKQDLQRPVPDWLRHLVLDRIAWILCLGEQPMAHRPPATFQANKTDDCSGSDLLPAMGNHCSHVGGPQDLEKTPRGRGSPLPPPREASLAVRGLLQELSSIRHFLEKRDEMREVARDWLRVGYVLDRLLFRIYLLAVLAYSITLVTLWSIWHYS
T1 sequence (Q9JHJ5 whole entry): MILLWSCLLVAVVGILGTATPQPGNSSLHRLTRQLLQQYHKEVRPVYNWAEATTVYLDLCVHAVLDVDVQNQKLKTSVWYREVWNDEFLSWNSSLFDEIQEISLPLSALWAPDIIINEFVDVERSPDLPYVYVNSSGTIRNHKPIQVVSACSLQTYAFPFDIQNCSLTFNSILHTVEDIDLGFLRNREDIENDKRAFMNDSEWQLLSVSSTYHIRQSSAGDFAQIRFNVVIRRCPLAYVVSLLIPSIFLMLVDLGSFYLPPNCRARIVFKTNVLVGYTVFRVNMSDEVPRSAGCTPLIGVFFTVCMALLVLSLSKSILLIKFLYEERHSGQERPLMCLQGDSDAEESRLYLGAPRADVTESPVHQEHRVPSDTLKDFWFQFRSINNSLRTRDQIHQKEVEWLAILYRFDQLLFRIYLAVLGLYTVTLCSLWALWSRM

[2] = molecular target: T1, 5-hydroxytryptamine receptor 3A/3B; assay: Compound was evaluated for binding to 5-hydroxytryptamine 3 receptor in N1E cells using [3H]- -Tropisetron as radioligand

SMILES | Kd [1] | Kd [2]
CN1[C@@H]2CC[C@H]1C[C@@H](OC(=O)c1c[nH]c3ccccc13)C2 [(3-ENDO)-8-METHYL-8-AZABICYCLO[3.2.1]OCT-3-YL 1H-INDOLE-3-CARBOXYLATE] | 0.794 nM | –
Cc1nccn1CC1CCc2c(c3ccccc3n2C)C1=O (stereo not drawn) [NSC_68647] | – | 20 nM
CN1C2CC(OC(=O)c3c[nH]c4ccccc34)CC1C1OC12 (stereo not drawn) | 0.631 nM | –
